Assay in all cases: DTP human tumour cell line panel, 48 h
Assay [1] concerns A549 NSCLC.
For assay [2], the system named is CAKI-1 renal.
In assay [3] the test system is HCC-2998 colon.
For assay [4], the system named is IGROV1 ovarian.
Assay [5] deals with MCF7 breast.
Assay [6] has as its system MDA-MB-231 breast.
Assay [7] relates to MDA-N.
The subject of assay [8] is NCI-H226 lung.
The subject of assay [9] is RXF 393 renal.
Assay [10] relates to SF-268 CNS.
The test system of assay [11] is SF-539 CNS.
Assay [12] has as its system U251 CNS.

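Each compound was tested at five concentrations against cells in 96-well plates for 48 hours. The concentration for 50% growth inhibition is given as GI50. The concentration for full growth arrest is given as TGI.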

Take `O=C(Nc1ccccc1)N(C1=NCC(CI)S1)c1ccc(F)cc1F` (stereo unspecified): the TGI – broadly, the concentration giving total growth inhibition – is over 100 µM in [1]; 66.9 µM in [2]; over 100 µM in assay [3]; 52 µM in [4]; over 100 µM in assay [5]; 78.4 µM in assay [6]. Moreover, the TGI in assay [7], in assay [8], in assay [9], in assay [10], in assay [11] and in assay [12] was over 100 µM throughout.

In the case of `CCCCCCOc1ccc(C(=O)NO)cc1`, the TGI in assay [1] was 43.3 µM; in assay [2] it was 19.2 µM; in assay [3], 28.3 µM; in assay [4] it was 23.2 µM; in assay [5], over 100 µM; in assay [6] it was 21.9 µM. The TGI is 34.1 µM in assay [7]; 32.6 µM in [8]; 30.1 µM in [9]; 28.7 µM in assay [10]; 45.7 µM in assay [11]; 28.9 µM in assay [12].

Turning to `Cc1ccc(Nc2c(C#N)[n+]([O-])c3cc(Cl)ccc3[n+]2[O-])cc1`, the TGI in assay [1], in assay [2], in assay [3], in assay [4], in [5] and in assay [6] was over 100 µM each time. Besides, the TGI in [7], in assay [8], in assay [9], in assay [10], in [11] and in assay [12] was over 100 µM in each case.

On to `Cc1ccc(N=Nc2ccc(O)c(CN(C)C)c2)cc1`, for which the TGI was 49.4 µM in assay [1]; 61.3 µM in assay [2]; 29.5 µM in assay [3]; 35 µM in assay [4]; 73.9 µM in assay [5]; 56.3 µM in [6]. Besides, the TGI is 30.6 µM in assay [7]; 49.4 µM in assay [8]; 34.2 µM in assay [9]; 91.7 µM in [10]; 33.3 µM in assay [11]; over 100 µM in [12].

With `CN(NC(=O)c1cccs1)C1=NCCCCN1`, the TGI in assay [1], in assay [3], in assay [4], in assay [5], in assay [6] and in [7] was over 100 µM throughout. The concentration for total growth inhibition (TGI) in assay [8], in assay [9], in [10], in assay [11] and in [12] was over 100 µM throughout.

Regarding `Cc1ccc(-c2cc(C(F)(F)F)nn2-c2ccc(S(N)(=O)=O)cc2)cc1`, the TGI in [1] was over 52.6 µM; in assay [2], over 60.1 µM; in [3] it was 33.1 µM; in assay [4], over 54.6 µM; in assay [5] it was over 58.4 µM; in assay [6] it was over 54.2 µM. Moreover, the TGI in [7] was 30.9 µM; in assay [8] it was over 100 µM; in assay [9] it was 36 µM; in assay [10] it was over 55.8 µM; in assay [11], over 59.4 µM; in [12], over 54.5 µM. Also, in assay [8], the GI50 – broadly, the concentration that inhibits growth by half – was 28.2 µM.

In the case of `O=P1(Oc2ccccc2)N(CCCl)CCN1c1ccccc1` (stereo unspecified), the TGI in assay [1], in assay [2], in assay [3], in assay [4], in assay [5] and in [6] was over 100 µM in each case. Also, the TGI in [7], in assay [8], in assay [9], in assay [10], in assay [11] and in assay [12] was over 100 µM throughout.

Consider `Nc1ccn(C2CCC(CO)O2)c(=S)n1` (stereo unspecified), for which the TGI in assay [1], in [2], in assay [3], in assay [4], in assay [5] and in assay [6] was over 100 µM in each case. The TGI in assay [7], in assay [8], in assay [9], in [10], in [11] and in [12] was over 100 µM in each case.

In the case of `O=c1oc2ccccc2c(O)c1/C=N/C(=S)NCCc1ccccc1`, the TGI in assay [1], in assay [2], in assay [3], in [4], in assay [5] and in [6] was over 100 µM throughout. Further, the TGI is over 100 µM in assay [7]; over 100 µM in assay [8]; over 100 µM in [9]; over 100 µM in assay [10]; over 71.1 µM in assay [11]; over 100 µM in assay [12].

For the molecule `c1ccc([P+](Cc2ccccc2C[P+](c2ccccc2)(c2ccccc2)c2ccccc2)(c2ccccc2)c2ccccc2)cc1`, the TGI in [1], in [2], in assay [3], in assay [4], in assay [5] and in [6] was over 100 µM throughout. The TGI in [7], in assay [8], in assay [9], in [10], in [11] and in assay [12] was over 100 µM throughout.

As for `CCc1n[nH]c(=O)n1/N=C/c1ccc(C)cc1`, the TGI in assay [1], in [2], in [3], in [4], in assay [5] and in assay [6] was over 100 µM throughout. Also, the TGI in [7], in assay [8], in [9], in assay [10], in assay [11] and in assay [12] was over 100 µM throughout.

As for `CCN1C(=O)C(C)S/C1=N\NC(=O)CSc1nc2ccccc2c(=O)n1CC` (stereo unspecified), the TGI in [1], in assay [2], in assay [3], in assay [4], in [5] and in [6] was over 100 µM throughout. Moreover, the TGI in [7], in assay [8], in [9], in [10], in [11] and in assay [12] was over 100 µM each time.

Regarding `CCOC(=O)C(C)NC(=O)C(C)NC(=O)C(C)NC(=O)C(C)NC(=O)C(C)NC(=O)OCc1ccccc1` (stereo unspecified), the TGI in assay [1], in [2], in assay [3], in assay [4], in assay [5] and in assay [6] was over 100 µM each time. Further, the TGI in [7], in [8], in assay [9], in assay [10], in [11] and in [12] was over 100 µM throughout.

With `CCOC(=O)[C@@]12C3C=CC(CC3)[C@]1(C(=O)c1ccccc1)C(=O)C(=O)N2c1ccccc1` (stereo partly specified), the TGI in assay [1], in assay [2], in assay [3], in assay [5], in [6] and in assay [7] was over 100 µM each time. Besides, the TGI in assay [9], in assay [10], in assay [11] and in [12] was over 100 µM each time.

Regarding `COc1cc(OC)c2nc(C)c3c(c2c1)NCC3`, the TGI came out at 34.1 µM in [1]; 20.3 µM in assay [3]; 34 µM in [4]; 17.8 µM in assay [5]; 21.8 µM in assay [6]; 21.1 µM in assay [7]. In addition, the TGI in assay [8] was determined as 19 µM; in [9], 18.1 µM; in [10] it was 20 µM; in assay [11], 16.4 µM; in assay [12], 33.4 µM.

As for `O=C(O)CCc1ccc2c(c1)C(=O)CC2`, the TGI in assay [1], in assay [3], in assay [4], in assay [5], in [6] and in assay [7] was over 100 µM in each case. The TGI in [8], in assay [9], in [10], in assay [11] and in [12] was over 100 µM each time.

Consider `Cc1nc(N/N=C/c2ccccc2Cl)[nH]c(=O)c1CCO`, for which the TGI in assay [1], in assay [3], in assay [4], in assay [5], in assay [6] and in assay [7] was over 100 µM in each case. For the same molecule, the TGI in [8] is over 100 µM; in assay [9], 69.9 µM; in [10] it was over 100 µM; in [11], over 100 µM; in assay [12], over 100 µM.

As to `C=C(C)[C@H]1C=C[C@@H](OC(=O)c2cccnc2)[C@@]23CO[C@@](C)([C@H](OC(=O)c4cccnc4)[C@@]4(OC(C)=O)C[C@H](C)[C@H](OCCC)[C@@H]4[C@H]2OC(C)=O)[C@H]13`, the TGI in assay [2], in assay [3], in assay [4], in assay [5], in assay [6] and in [7] was over 15 µM throughout. For the same molecule, the TGI in assay [8], in assay [9], in assay [10], in assay [11] and in assay [12] was over 15 µM throughout.

Turning to `CNC(=O)N(CCC#N)CCCN(C(=O)NC)c1ccccc1`, the TGI in assay [1], in [2], in assay [3], in assay [4], in assay [5] and in [6] was over 100 µM in each case. Moreover, the TGI in assay [7], in assay [8], in [9], in [11] and in assay [12] was over 100 µM throughout.

In the case of `CN(C)CCN=C1Nc2ccccc2C(=S)N2CSCC12` (stereo unspecified), the TGI in [1], in assay [2], in assay [3], in [4], in assay [5] and in [6] was over 100 µM throughout. Also, the TGI in assay [7], in assay [8], in assay [9], in [10] and in [12] was over 100 µM in each case.

In the case of `Cc1ccc(S(=O)(=O)N2CCSCCN(S(=O)(=O)c3ccc(C)cc3)CCN(S(=O)(=O)c3ccc(C)cc3)CC2)cc1`, the TGI in [1] was over 100 µM; in [3], over 100 µM; in assay [4], over 100 µM; in [5], over 100 µM; in [6], 59.5 µM; in assay [7], over 100 µM. Moreover, the TGI is over 100 µM in assay [8]; over 100 µM in assay [9]; over 100 µM in assay [10]; 56.8 µM in assay [11]; 90.1 µM in [12].

`COc1ccc(C(CC(=O)C(C)(C)CN2CCCCC2)SCCS(=O)(=O)O)cc1` (stereo unspecified): the TGI was over 100 µM in assay [1]; over 100 µM in assay [2]; over 100 µM in [3]; over 100 µM in assay [4]; over 100 µM in assay [5]; 75.1 µM in assay [6]. For the same molecule, the TGI in [7] was 96.2 µM; in [8], over 100 µM; in assay [9] it was over 100 µM; in assay [11], 38.8 µM; in [12], over 100 µM.

For the molecule `CC(=O)Nc1cc2c3c(c1)CCCN3CCC2`, the TGI in [1], in assay [2], in assay [3], in assay [4], in [5] and in [6] was over 100 µM throughout. Also, the TGI in assay [7], in [8], in assay [9], in [11] and in [12] was over 100 µM each time.

For `c1ccc(-n2nc3ccc4nonc4c3n2)cc1`, the TGI in assay [1], in assay [2], in [3], in assay [4], in [5] and in assay [6] was over 100 µM each time. Also, the TGI in assay [7], in assay [9], in assay [10], in assay [11] and in [12] was over 100 µM each time.
